Assay results: ChEMBL document CHEMBL1159242, “Studies on the inhibitory effects of caffeoylquinic acids on monocyte migration and superoxide ion production” (J Nat Prod, 1995)
Active and inactive are the calls of the source. No cut-off for these calls is given here.

How the values were obtained:
[1] = Cytotoxicity against human monocytes measured by LDH activity; format: cell-based; details: monocyte
Monocyte [2] = assay: Inhibition of healthy human monocyte migration assessed as chemotactic index at 100 nM after 45 mins; format: functional, cell-based
Monocyte [3] = assay: Inhibition of O2- radical production in zymosan-stimulated healthy human monocyte measured after 1 hr at 37 degC; format: functional, cell-based
Monocyte [4] = assay: Inhibition of healthy human monocyte migration assessed as chemotactic index at 0.1 pM after 45 mins; format: functional, cell-based
Monocyte [5] = assay: Inhibition of healthy human monocyte migration assessed as chemotactic index at 0.001 to 0.00001 pM; format: functional, cell-based
Monocyte [6] = assay: Inhibition of O2- radical production in zymosan-stimulated healthy human monocyte measured after 45 mins at 37 degC; format: functional, cell-based
Monocyte [7] = assay: Inhibition of O2- radical production in zymosan-stimulated healthy human monocyte assessed as increase in H2O production after 1 hr at 37 degC; format: functional, cell-based
Monocyte [8] = assay: Inhibition of O2- radical production in zymosan-stimulated healthy human monocyte assessed as inhibition H2O2 production after 1 hr at 37 degC; format: functional, cell-based
Monocyte [9] = assay: Inhibition of healthy human monocyte migration assessed as chemotactic index at 0.01 nM after 45 mins; format: functional, cell-based
Monocyte [10] = assay: Inhibition of healthy human monocyte migration assessed as chemotactic index at 0.001 to 0.00001 pM after >45 mins; format: functional, cell-based

Row | Compound | Activity [1] | Activity (Monocyte [2]) | Activity (Monocyte [3]) | Activity (Monocyte [4]) | Activity (Monocyte [5]) | Activity (Monocyte [6]) | Activity (Monocyte [7]) | Activity (Monocyte [8]) | Activity (Monocyte [9]) | Activity (Monocyte [10])
1 | O=C(/C=C/c1ccc(O)c(O)c1)O[C@@H]1C[C@](O)(C(=O)O)C[C@@H](OC(=O)/C=C/c2ccc(O)c(O)c2)[C@H]1OC(=O)/C=C/c1ccc(O)c(O)c1 | Non-toxic |  |  |  |  |  |  |  |  | 
2 | O=C(/C=C/c1ccc(O)c(O)c1)O[C@H]1[C@H](O)C[C@](O)(C(=O)O)C[C@H]1OC(=O)/C=C/c1ccc(O)c(O)c1 | Non-toxic | inactive | Dose-dependent effect |  |  |  |  |  |  | 
3 | O=C(/C=C/c1ccc(O)c(O)c1)O[C@@H]1C[C@](O)(C(=O)O)C[C@@H](OC(=O)/C=C/c2ccc(O)c(O)c2)[C@H]1O | Non-toxic |  | Dose-dependent effect | Active | Active | Active | Active | Active | Active | inactive
